Results from PubChem BioAssay (NCI).
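The compound was tested at five concentrations on cells cultured in 96-well plates, with a 48-hour exposure period. GI50 marks 50% less growth. Definition used: TGI = concentration required for complete inhibition of growth.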

What was measured:
Assay in all cases: NCI-60 cell line screen, 48 h
[1] = tested on: HOP-92 NSCLC
[2] = tested on: RXF 393 renal
[3] = tested on: HCT-15 colon
[4] = tested on: K-562 leukemia
[5] = tested on: HCC-2998 colon
[6] = tested on: SF-295 CNS
[7] = tested on: EKVX NSCLC
[8] = tested on: BT-549 breast
[9] = tested on: NCI-H23 lung
[10] = tested on: SK-MEL-2 melanoma
[11] = tested on: SK-MEL-28 melanoma
[12] = tested on: IGROV1 ovarian
[13] = tested on: NCI-H226 lung
[14] = tested on: RPMI-8226 leukemia
[15] = tested on: MOLT-4 leukemia
[16] = tested on: NCI-H460 lung
[17] = tested on: OVCAR-8 ovarian
[18] = tested on: OVCAR-4 ovarian
[19] = tested on: UACC-257 melanoma
[20] = tested on: ACHN renal
[21] = tested on: MDA-MB-435
[22] = tested on: OVCAR-5 ovarian
[23] = tested on: TK-10 renal
[24] = tested on: SF-539 CNS
[25] = tested on: MDA-MB-468 breast
[26] = tested on: SW-620 colon
[27] = tested on: 786-0 renal
[28] = tested on: SNB-19 CNS
[29] = tested on: HL-60(TB) leukemia
[30] = tested on: SNB-75 CNS
[31] = tested on: HT29 colon
[32] = tested on: A498 renal
[33] = tested on: HS 578T breast
[34] = tested on: OVCAR-3 ovarian
[35] = tested on: MDA-MB-231 breast
[36] = tested on: COLO 205 colon
[37] = tested on: CCRF-CEM leukemia
[38] = tested on: HCT-116 colon
[39] = tested on: MCF7 breast
[40] = tested on: HOP-62 NSCLC
[41] = tested on: SF-268 CNS
[42] = tested on: LOX IMVI melanoma
[43] = tested on: SK-OV-3 ovarian
[44] = tested on: T-47D breast
[45] = tested on: PC-3 prostate
[46] = tested on: SR leukemia
[47] = tested on: MALME-3M melanoma
[48] = tested on: UACC-62 melanoma
[49] = tested on: NCI/ADR-RES ovarian
[50] = tested on: SN12C renal
[51] = tested on: NCI-H522 lung
[52] = tested on: UO-31 renal
[53] = tested on: CAKI-1 renal
[54] = tested on: KM12 colon
[55] = tested on: A549 NSCLC
[56] = tested on: U251 CNS
[57] = tested on: SK-MEL-5 melanoma
[58] = tested on: M14 melanoma
[59] = tested on: DU-145 prostate

Structure (SMILES): CCN1C(=O)N(CC)C2NNC(Sc3c(C(=O)O)c4ccccc4n(CC(C)C)c3=O)=NC21 (stereo not drawn)
- GI50 [1]: 14.4 µM
- TGI [1]: 64.1 µM
- GI50 [2]: 3.17 µM
- TGI [2]: 17.1 µM
- GI50 [3]: 1.89 µM
- TGI [3]: 18.8 µM
- GI50 [4]: 2.77 µM
- TGI [4]: > 100 µM
- GI50 [5]: 3.28 µM
- TGI [5]: 16.9 µM
- GI50 [6]: 3.01 µM
- TGI [6]: 16.3 µM
- GI50 [7]: 3.11 µM
- TGI [7]: > 100 µM
- GI50 [8]: 35.7 µM
- TGI [8]: > 100 µM
- GI50 [9]: 3.67 µM
- TGI [9]: 21.4 µM
- GI50 [10]: 4.21 µM
- TGI [10]: > 100 µM
- GI50 [11]: 6.5 µM
- TGI [11]: > 100 µM
- GI50 [12]: 2.54 µM
- TGI [12]: 19.3 µM
- GI50 [13]: 3.92 µM
- TGI [13]: 21.1 µM
- GI50 [14]: 2.75 µM
- TGI [14]: > 100 µM
- GI50 [15]: 3.66 µM
- TGI [15]: > 100 µM
- GI50 [16]: 3.08 µM
- TGI [16]: 12.2 µM
- GI50 [17]: 3.55 µM
- TGI [17]: 30.1 µM
- GI50 [18]: 15 µM
- TGI [18]: > 100 µM
- GI50 [19]: 14.7 µM
- TGI [19]: > 100 µM
- GI50 [20]: 4.73 µM
- TGI [20]: 46.2 µM
- GI50 [21]: 0.976 µM
- TGI [21]: 4.19 µM
- GI50 [22]: 4.19 µM
- TGI [22]: 67.1 µM
- GI50 [23]: 18.4 µM
- TGI [23]: > 100 µM
- GI50 [24]: 2.08 µM
- TGI [24]: 5.47 µM
- GI50 [25]: 0.442 µM
- TGI [25]: 3.91 µM
- GI50 [26]: 4.05 µM
- TGI [26]: > 100 µM
- GI50 [27]: 7.45 µM
- TGI [27]: > 100 µM
- GI50 [28]: 3.78 µM
- TGI [28]: 65 µM
- GI50 [29]: 2.37 µM
- TGI [29]: 12.9 µM
- GI50 [30]: 1.81 µM
- TGI [30]: 9.27 µM
- GI50 [31]: 2.83 µM
- TGI [31]: 12.5 µM
- GI50 [32]: > 100 µM
- TGI [32]: > 100 µM
- GI50 [33]: 2.94 µM
- TGI [33]: 58.8 µM
- GI50 [34]: 3.19 µM
- TGI [34]: 22.3 µM
- GI50 [35]: 2.51 µM
- TGI [35]: 21.9 µM
- GI50 [36]: 2.53 µM
- TGI [36]: 6.95 µM
- GI50 [37]: 3.54 µM
- TGI [37]: > 100 µM
- GI50 [38]: 3.18 µM
- TGI [38]: > 100 µM
- GI50 [39]: 0.949 µM
- TGI [39]: 21.5 µM
- GI50 [40]: 5.42 µM
- TGI [40]: > 100 µM
- GI50 [41]: 6.46 µM
- TGI [41]: > 100 µM
- GI50 [42]: 4.13 µM
- TGI [42]: 20.6 µM
- GI50 [43]: 6.05 µM
- TGI [43]: > 100 µM
- GI50 [44]: > 100 µM
- TGI [44]: > 100 µM
- GI50 [45]: 4.14 µM
- TGI [45]: > 100 µM
- GI50 [46]: 13.2 µM
- TGI [46]: > 100 µM
- GI50 [47]: 5.23 µM
- TGI [47]: 47.7 µM
- GI50 [48]: 2.68 µM
- TGI [48]: 33.5 µM
- GI50 [49]: 1.99 µM
- TGI [49]: 4.89 µM
- GI50 [50]: 3.62 µM
- TGI [50]: 34.4 µM
- GI50 [51]: 1.88 µM
- TGI [51]: 5.97 µM
- GI50 [52]: 4.11 µM
- TGI [52]: > 100 µM
- GI50 [53]: 3.1 µM
- TGI [53]: 23.2 µM
- GI50 [54]: 2.93 µM
- TGI [54]: > 100 µM
- GI50 [55]: 4.6 µM
- TGI [55]: > 100 µM
- GI50 [56]: 3.91 µM
- TGI [56]: > 100 µM
- GI50 [57]: 3.83 µM
- TGI [57]: 16.4 µM
- GI50 [58]: 4 µM
- TGI [58]: > 100 µM
- GI50 [59]: 4.49 µM
- TGI [59]: > 100 µM
